{
  "source": "patent US8653023B1",
  "about": "“Dual beneficial effect of dopamine enhancing and neuroprotective actions of PKC delta inhibitors for treatment of Parkinson's disease” (Iowa State University Research Foundation, Inc., priority 2006, dated 2014)",
  "key": {"[1]": {"test_system": "primary mesencephalic dopaminergic neuronal cells", "assay_type": "cell-based, mice", "conditions": "10 μM MPP+, 48 hrs", "protocol": "Primary mesencephalic neuronal cultures were prepared from the ventral mesencephalon of gestational 16-18-day-old mice embryos as described previously (Yang et al., 2004). Mesencephalic tissues were dissected and maintained in ice-cold Ca^2+-free HESS and then dissociated in HESS solution containing trypsin-EDTA (0.25%) for 20 min at 37° C. The dissociated cells were then plated at equal density (0.5×10^6 cells) in 30-mm-diameter tissue culture wells precoated with poly-D-lysine (1 mg/ml). Cultures were maintained in a chemically defined medium consisting of neurobasal medium fortified with B-27 supplements, L-glutamine (500 μM), penicillin (100 IU/ml), and streptomycin (100 μg/ml) (Life Technologies). The cells were maintained in a humidified CO2 incubator (5% CO2, 37° C.) for 24 hr and then treated with cytosine arabinoside (10 μM) for 24 hr to inhibit glial cell proliferation. Half of the culture medium was replaced every 2 days. Approximately 6-7-day-old cultures were used for experiments. […]\nAfter treatment, the primary mesencephalic neurons were fixed with 4% paraformaldehyde and processed for immunocytotochemical staining. […] Then the coverslips containing stained cells were washed with PBS, mounted on a slide, and viewed under a Nikon inverted fluorescence microscope (Model TE-2000U); images were captured with a SPOT digital camera (Diagnostic Instruments, Sterling Heights, Mich.).\nWe used Metamorph software (Universal Imaging, Version 5.0) for measurement of TH^+ cells and neuronal processes in primary neurons from each coverslip. For measurement of TH cell count, the images were first thresholded, and then neuronal count and volume were measured using the Integrated Morphometry Analysis (IMA) function. The data were logged to an Excel spreadsheet with defined row and column positions and then analyzed. […] The data were exported to an Excel spreadsheet and analyzed. TH^+ neurons and their processes were counted in at least six individual cultures for each treatment. This method is a modified version of methodology recently used for quantification of neuronal processes."}, "[2]": {"test_system": "tyrosine hydroxylase (TH)", "assay": "TH activity (DOPA levels after NSD-1015) in N27 cells", "assay_type": "cell-based, rat", "conditions": "2 mM NSD-1015, rottlerin 3 hr vs DMSO, PKCδ-DN vs LacZ", "protocol": "Plasmid pPKCδ^K376R-V5 encodes the loss of function PKCδ-V5 epitope tagged mutant protein; K376R refers to the mutation of the lysine residue at position 376 to arginine in the catalytic site resulting in inactivation of the kinase. Plasmid pLacZ-V5 encodes the β-galactosidase protein alone with a V5-epitope and is used as a vector control. N27 cells stably expressing PKCδ^K376R-V5 (herein referred to as PKCδ-DN cells) and LacZ alone-expressing cells (LacZ cells) were cultured as described previously (Kitazawa et al., 2005). PKCδ-DN or LacZ expressing N27 cells were identified by immunostaining of the C-terminal V5 epitope on expressed proteins and were differentiated with cAMP analogs (e.g. dibutyral cAMP) prior to experiments. PKCδ-DN and LacZ were also transiently expressed in mouse primary mesencephalic neurons using an AMAXA® Nucleofector™ kit (AMAXA GmbH, Germany). As described above, primary mesencephalic neurons were prepared from the midbrain of 16-18-day-old mice embryos. After digestion with trypsin-EDTA-HBSS, the primary neurons were homogenously resuspended with transfection buffer provided with the kit to a final concentration of 4-5×10^6 neurons/100 μl and mixed with 1 μg plasmid DNA encoding either PKCδ-DN-V5 or LacZ-V5. […] Transfection efficiency was >75% as determined by immunostaining of V5-expression. […]"}, "[3]": {"test_system": "Akt", "conditions": "cited from earlier work"}, "[4]": {"test_system": "NZM mice", "conditions": "in vivo treatment; cited from earlier work"}},
  "note": "Read-outs that look alike come from different tables or passages of the source.",
  "data": [
    {"smiles": "CC(=O)c1c(O)c(C)c(O)c(Cc2c(O)c3c(c(C(=O)/C=C/c4ccccc4)c2O)OC(C)(C)C=C3)c1O", "note": "[rottlerin]", "values": [
      {"measurement": "MPP+-induced degeneration of TH+ neurons and their processes", "setting": "[1]; 0.3 μM rottlerin", "value": "significantly blocked"},
      {"measurement": "MPP+-induced degeneration of TH+ neurons and their processes", "setting": "[1]; 1 μM rottlerin", "value": "significantly blocked"},
      {"measurement": "TH activity", "setting": "[2]", "value": "3025±266.7", "unit": "pg DOPA/10^6 cells/hr"},
      {"measurement": "TPA-induced dephosphorylation of Akt", "setting": "[3]", "value": "inhibited"},
      {"measurement": "exacerbation of autoimmunity by silica exposure", "setting": "[4]", "value": "significantly decreased"}
    ]}
  ]
}
